Reference: ChEMBL document CHEMBL4130444, “1,4-Naphthoquinones as inhibitors of Itch, a HECT domain-E3 ligase, and tumor growth suppressors in multiple myeloma” (Eur J Med Chem, 2017)

What was measured:
MDA-MB-231 = test: Antiproliferative activity against human MDA-MB-231 cells incubated for 48 hrs by SRB assay; type: functional; settings: MDA-MB-231, 48 h
HCT-116 = test: Antiproliferative activity against human HCT116 cells incubated for 48 hrs by SRB assay; type: functional; settings: HCT-116, 48 h

O=C(Nc1cccc2ncccc12)c1ccc(CNC2=C(Cl)C(=O)c3ccccc3C2=O)cc1
GI50 (MDA-MB-231): > 10 µM | GI50 (HCT-116): > 10 µM
